Laboratory results: ChEMBL document CHEMBL4414616, “Exhaustive Repertoire of Druggable Cavities at Protein-Protein Interfaces of Known Three-Dimensional Structure” (J Med Chem, 2019)
The source made the active and inactive calls. The calls are words filed in the database; no cut-off is given here.

Columns and labels:
[1] = tested on: Lactobacillus johnsonii; experiment: Non-competive inhibition of catalytic activity of His6-tagged Lactobacillus johnsonii N6.2 cinnamoyl esterase LJ0536 expressed in Escherichia coli BL21 (DE3) assessed as substrate Vmax by measuring hydrolysis of 4-nitrophenyl butyrate in 4-nitrophenol at 400 uM pre-incubated for 2 hrs (reference value: 4.094 umol/min/mg)
[2] = tested on: Lactobacillus johnsonii; experiment: Inhibition of catalytic activity of His6-tagged Lactobacillus johnsonii N6.2 cinnamoyl esterase LJ0536 expressed in Escherichia coli BL21 (DE3) assessed as reduction in hydrolysis of 4-nitrophenyl butyrate in 4-nitrophenol pre-incubated for 2 hrs
[3] = tested on: Lactobacillus johnsonii; experiment: Inhibition of catalytic activity of His6-tagged Lactobacillus johnsonii N6.2 cinnamoyl esterase LJ0536 expressed in Escherichia coli BL21 (DE3) assessed as reduction in hydrolysis of 4-nitrophenyl butyrate in 4-nitrophenol at 400 uM in presence of 2.5 to 20 mM enzyme pre-incubated for 2 hrs

Structure (SMILES): CC(C(=O)O)c1ccc(-c2ccccc2)c(F)c1 (stereo not drawn)
- Vmax [1]: 3.7 µmol/min/mg
- inhibition [2]: Dose-dependent effect
- inhibition [3]: Active
